In ChEMBL document CHEMBL3632520, “Correlation of antioxidant activities with theoretical studies for new hydrazone compounds bearing a 3,4,5-trimethoxy benzyl moiety” (Eur J Med Chem, 2015):
Converted amounts (≈) assume the structure as drawn.

Experiments:
Format in all cases: physicochemical
[1] = Antioxidant activity assessed as DPPH radical scavenging activity measured as discoloration incubated for 30 mins in dark
[2] = Antioxidant activity assessed as ferric ion reducing activity using fe3+-TPTZ assessed as fe2+-TPTZ formation after 30 mins by FRAP assay; conditions: 0.5 h
[3] = Antioxidant activity assessed as DPPH radical scavenging activity measured as discoloration incubated for 30 mins in dark relative to control; conditions: 0.5 h

| Compound | IC50 [1] [µg/mL] | Activity [2] [µM] | inhibition (INH) [3] [%] |
| --- | --- | --- | --- |
| CCOC(=O)c1ccc(OCc2cc(OC)c(OC)c(OC)c2)cc1 | > 100 | 27 | 10.8 |
| COc1cc(COc2ccc(C(=O)NN)cc2)cc(OC)c1OC | 264 (≈ 794 µM) | 3515 | 37.2 |
| COc1cc(COc2ccc(C(=O)N/N=C/c3cc(Br)cc(Cl)c3O)cc2)cc(OC)c1OC | > 100 | 125 | 15.6 |
| COc1cc(COc2ccc(C(=O)N/N=C/c3cc(C(C)(C)C)c(O)c(C(C)(C)C)c3)cc2)cc(OC)c1OC | 62 (≈ 113 µM) | 1096 | 75.3 |
| COc1cc(/C=N/NC(=O)c2ccc(OCc3cc(OC)c(OC)c(OC)c3)cc2)cc(OC)c1O | 75 (≈ 151 µM) | 2087 | 57.9 |
| CCOc1cc(/C=N/NC(=O)c2ccc(OCc3cc(OC)c(OC)c(OC)c3)cc2)ccc1O | 106 (≈ 221 µM) | 1844 | 53.3 |
| COc1cc(COc2ccc(C(=O)N/N=C/c3ccc(OC)c(OC)c3OC)cc2)cc(OC)c1OC | > 100 | 1609 | 10.4 |
| COc1cc(/C=N/NC(=O)c2ccc(OCc3cc(OC)c(OC)c(OC)c3)cc2)cc(OC)c1OC | > 100 | 1365 | 10.4 |
| COc1cc(COc2ccc(C(=O)N/N=C/c3cccc(O)c3)cc2)cc(OC)c1OC | > 100 | 1819 | 9.3 |
| COc1cc(COc2ccc(C(=O)N/N=C/c3ccccc3O)cc2)cc(OC)c1OC | > 100 | 26 | 9.6 |
| COc1cc(COc2ccc(C(=O)N/N=C/c3ccc(O)cc3)cc2)cc(OC)c1OC | > 100 | 3056 | 18.7 |
| O=C1O[C@H]([C@@H](O)CO)C(O)=C1O [ASCORBIC ACID] | 40 (≈ 227 µM) | 2562 | 90.6 |
| Cc1cc(C(C)(C)C)c(O)c(C(C)(C)C)c1 [BUTYLATED HYDROXYTOLUENE] | 99.7 (≈ 452 µM) | 2837 | 54.8 |
